Measured values from patent US20250034170A1, “SMALL MOLECULE MODULATORS OF GLUCOCEREBROSIDASE ACTIVITY AND USES THEREOF” (Vanqua Bio, Inc., priority 2021, published 2025).

Biological target: T1, GCase (Homo sapiens, UniProt P04062)
T1 construct: endogenous in cells; host or cells: HeLa cells
T1 sequence (P04062 40-536): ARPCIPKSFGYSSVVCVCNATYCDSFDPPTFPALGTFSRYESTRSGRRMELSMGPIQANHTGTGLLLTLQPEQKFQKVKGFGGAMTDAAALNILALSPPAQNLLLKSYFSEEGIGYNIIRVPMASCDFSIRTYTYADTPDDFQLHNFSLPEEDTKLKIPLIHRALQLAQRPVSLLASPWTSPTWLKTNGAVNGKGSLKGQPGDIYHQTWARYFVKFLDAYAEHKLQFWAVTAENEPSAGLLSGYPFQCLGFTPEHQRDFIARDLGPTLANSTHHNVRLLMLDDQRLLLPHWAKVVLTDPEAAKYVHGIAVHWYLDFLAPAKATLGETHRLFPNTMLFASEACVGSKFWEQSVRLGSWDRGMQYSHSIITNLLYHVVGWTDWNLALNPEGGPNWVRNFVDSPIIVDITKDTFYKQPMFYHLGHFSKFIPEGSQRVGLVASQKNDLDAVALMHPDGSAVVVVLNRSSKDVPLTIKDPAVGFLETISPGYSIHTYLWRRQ
Experiment: activation of GCase in a live cell PFB assay in HELA cells
Type: cell-based
Procedure: Exemplary compounds were evaluated for activation of GCase in a live cell PFB assay in HELA cells (essentially as described in Ysselstein et al., “LRRK2 kinase activity regulates lysosomal glucocerebrosidase in neurons derived from Parkinson's disease patients” Nature Communications (2019) 10:5570). […] EC50 ranges: A: <10 μM; B: >10-50 μM; C: >50-100 μM; D: >100 μM.

[1] = activation of GCase, EC50 ranges

SMILES: FC(F)Cn1ncc2ncc(N3CCC4(CCCN(c5cccnc5C(F)(F)F)C4)C3)nc21 (centres unmarked) [Compound 7, 2-[1-(2,2-difluoroethyl)-1H-pyrazolo[3,4-b]pyrazin-6-yl]-7-[2-(trifluoromethyl)pyridin-3-yl]-2,7-diazaspiro[4.5]decane]
- EC50 [1]: < 10 µM

SMILES: COCCn1ncc2ncc(N3CCC4(CCN(c5cc(C(F)(F)F)ccn5)C4)CC3)nc21 [Cmpd 750]
- EC50 [1]: < 10 µM

SMILES: O=C1CC2(CCN(c3cnc4cnn(CC(F)F)c4n3)CC2)CN1Cc1ccc(Cl)cc1 [Cmpd 445]
- EC50 [1]: 10 to 50 µM

SMILES: O=C1CCC2(CCN(c3cnc4cnn(CC(F)F)c4n3)C2)CN1c1cncc(C(F)(F)F)c1 (centres unmarked) [Cmpd 796]
- EC50 (EC50 given as range classes): < 10 µM

SMILES: O=C(c1ccc(C(F)(F)F)cn1)N1CCC2(CC1)CN(c1cnc3cnn(CC(F)F)c3n1)C2 [Cmpd 330]
- EC50 [1]: 10 to 50 µM

SMILES: Cc1nn(C2COC2)c2nc(N3CC4(CCN(c5ccnc(C(F)(F)F)c5)C4=O)C3)cnc12 [Cmpd 347]
- EC50 [1]: 10 to 50 µM

SMILES: FC(F)Cn1ncc2ncc(N3CCC4(CN(c5ccc(Cl)cn5)C4)C3)nc21 [Cmpd 403]
- EC50 (EC50 given as range classes): 10 to 50 µM

SMILES: O=S(=O)(c1ccccc1C(F)(F)F)N1CC2(CCN(c3cnc4cnn(CC(F)F)c4n3)C2)C1 [Cmpd 396]
- EC50 (EC50 given as range classes): 10 to 50 µM

SMILES: O=C1CC2(CCN(c3cnc4cnn(CC(F)F)c4n3)CC2)CN1Cc1ccc(C(F)(F)F)nc1 [Cmpd 307]
- EC50 [1]: < 10 µM

SMILES: COc1nc(N2CCC3(CCN(c4cnc5cnn(CC(F)F)c5n4)CC3)C2=O)ccc1C(F)(F)F [Cmpd 783]
- EC50 (EC50 given as range classes): 50 to 100 µM

SMILES: Cc1cc(N2CC3(CCN(c4cnc5c(C)nn(C6COC6)c5n4)CC3)CC2=O)nc(C(F)(F)F)n1 [Cmpd 458]
- EC50 [1]: < 10 µM

SMILES: Cc1cc(N2CCC3(CCN(c4cnc5cnn(CC(F)F)c5n4)CC3)C2)nc(C(F)(F)F)n1 [Cmpd 528]
- EC50 [1]: < 10 µM

SMILES: CCn1ncc2c(=O)n(C)c(N3CCC4(CN(c5cnc(C(F)(F)F)nc5)C4)C3)nc21 [Cmpd 990]
- EC50 (EC50 given as range classes): < 10 µM

SMILES: FC(F)Cn1ncc2ncc(N3CC4(CCCN(c5ccc(C(F)(F)F)cn5)C4)C3)nc21 [Compound 14, 2-[1-(2,2-difluoroethyl)-1H-pyrazolo[3,4-b]pyrazin-6-yl]-6-[5-(trifluoromethyl)pyridin-2-yl]-2,6-diazaspiro[3.5]nonane]
- EC50 [1]: 10 to 50 µM

SMILES: Cc1nc(N2CC3(CCN(c4cnc5cnn(C)c5n4)C3)C2)cc(C(F)(F)F)n1 [Cmpd 649]
- EC50 [1]: 10 to 50 µM

SMILES: Cc1ncc(N2CC3(CCN(c4cnc5c(C)nn(CC(F)F)c5n4)C3)C2)c(C(F)(F)F)n1 [Cmpd 593]
- EC50 (EC50 given as range classes): > 100 µM

SMILES: O=C1N(c2cc(C(F)(F)F)ccn2)C(=O)C2(CCN(c3cnc4cnn(CC(F)F)c4n3)CC2)N1Cc1c(F)cccc1F [Cmpd 715]
- EC50 [1]: < 10 µM

SMILES: FC(F)Cn1ncc2ncc(N3CCC4(CC3)CC(COc3ccc(C(F)(F)F)cn3)C4)nc21 [Cmpd 702]
- EC50 [1]: 10 to 50 µM

SMILES: FC(F)Cn1ncc2ncc(N3CCC4(CCCN(c5cccc(C(F)(F)F)n5)C4)CC3)nc21 [Cmpd 216]
- EC50 (EC50 given as range classes): 10 to 50 µM

SMILES: O=C1N(c2ccc(C(F)(F)F)cn2)C2(CC2)CC12CCN(c1cnc3cnn(CC(F)F)c3n1)CC2 [Cmpd 312]
- EC50 [1]: 50 to 100 µM

SMILES: FC(F)Cn1ncc2ncc(N3CC4(CCCN(c5ncccc5C(F)(F)F)C4)C3)nc21 [Compound 39, 2-[1-(2,2-difluoroethyl)-1H-pyrazolo[3,4-b]pyrazin-6-yl]-6-[3-(trifluoromethyl)pyridin-2-yl]-2,6-diazaspiro[3.5]nonane]
- EC50 [1]: 50 to 100 µM

SMILES: COCCOc1cccc(N2CCC3(CCN(c4cnc5cnn(CC(F)F)c5n4)CC3)C2=O)n1 [Cmpd 672]
- EC50 [1]: 10 to 50 µM

SMILES: Cc1nn(CC(F)F)c2nc(N3CCC4(CC3)CCN(c3cc(C(F)(F)F)ccn3)C4=O)cnc12 [Compound 168, 8-[1-(2,2-difluoroethyl)-3-methyl-1H-pyrazolo[3,4-b]pyrazin-6-yl]-2-[4-(trifluoromethyl)pyridin-2-yl]-2,8-diazaspiro[4.5]decan-1-one]
- EC50 [1]: < 10 µM

SMILES: CCC1N(c2ccc(C(F)(F)F)cn2)C(=O)CC12CCN(c1cnc3cnn(C4COC4)c3n1)CC2 (centres unmarked) [Cmpd 859]
- EC50 [1]: 10 to 50 µM

SMILES: FC(F)(F)c1cncc(N2CCC3(CCN(c4cncc(-c5nncs5)n4)CC3)C2)c1 [Cmpd 235]
- EC50 [1]: 50 to 100 µM

SMILES: FC(F)Cn1ncc2ncc(N3CCC4(CN(c5cccc(OC(F)(F)F)n5)C4)C3)nc21 [Cmpd 405]
- EC50 (EC50 given as range classes): 10 to 50 µM

SMILES: FC(F)Cn1ncc2ncc(N3CCCC4(CCN(c5cccc(C(F)(F)F)n5)C4)C3)nc21 (centres unmarked) [Compound 34, 7-[1-(2,2-difluoroethyl)-1H-pyrazolo[3,4-b]pyrazin-6-yl]-2-[6-(trifluoromethyl)pyridin-2-yl]-2,7-diazaspiro[4.5]decane]
- EC50 [1]: 10 to 50 µM

SMILES: Cc1nc(N2CCC3(C2)CN(c2ncc4c(C)nn(C5COC5)c4n2)C3)cc(C(F)(F)F)n1 [Cmpd 558]
- EC50 [1]: < 10 µM

SMILES: O=C1N(c2ncccc2C(F)(F)F)CCC12CCN(c1cnc3cnn(CC(F)F)c3n1)CC2 [Cmpd 679]
- EC50 [1]: 10 to 50 µM

SMILES: FC(F)Cn1ncc2ncc(N3CCC4(CCN(c5ccc(C(F)(F)F)nc5)CC4)C3)nc21 [Compound 152, 2-[1-(2,2-difluoroethyl)-1H-pyrazolo[3,4-b]pyrazin-6-yl]-8-[6-(trifluoromethyl)pyridin-3-yl]-2,8-diazaspiro[4.5]decane]
- EC50 [1]: < 10 µM

SMILES: Cc1nc(N2CCC3(CCN(c4cnc5cnn(CC(F)F)c5n4)C3)C2=O)cc(C(F)(F)F)n1 (centres unmarked) [Cmpd 516]
- EC50 [1]: < 10 µM

SMILES: O=C1N(c2cncc(C(F)(F)F)n2)C(=O)C2(CCN(c3cnc4cnn(CC(F)F)c4n3)CC2)N1Cc1cc(F)cc(F)c1 [Cmpd 820]
- EC50 (EC50 given as range classes): < 10 µM

SMILES: Cc1nc(N2CC3(CCN(c4ncc5cn(C(F)F)nc5n4)C3)C2)cc(C(F)(F)F)n1 [Cmpd 651]
- EC50 [1]: 10 to 50 µM

SMILES: O=C1N(c2ncc(C(F)(F)F)cc2Cl)CCC12CCN(c1cnc3cnn(CC(F)F)c3n1)CC2 [Cmpd 776]
- EC50 [1]: 10 to 50 µM

SMILES: Cc1ncc(N2CC3(CCN(c4cnc5c(C)nn(CC(F)(F)F)c5n4)C3)C2)c(C(F)(F)F)n1 [Cmpd 606]
- EC50 (EC50 given as range classes): 50 to 100 µM

SMILES: Cc1nc(N2CCC3(CC2)CCN(c2ncc4cnn(CC(F)F)c4n2)C3)cc(C(F)(F)F)n1 [Cmpd 581]
- EC50 (EC50 given as range classes): 10 to 50 µM

SMILES: FC(F)(F)c1ccc(N2CCC3(CCN(c4cncc(-c5ccccc5)n4)CC3)C2)cn1 [Cmpd 251]
- EC50 [1]: < 10 µM

SMILES: FC(F)(F)c1cc(N2CCC3(CCN(c4cnc5cnn(C6COC6)c5n4)CC3)C2)cnn1 [Cmpd 1055]
- EC50 [1]: < 10 µM

SMILES: FC(F)(F)c1ncc(N2CC3(CCN(c4cncc(-c5nnc(C(F)(F)F)o5)n4)C3)C2)cn1 [Cmpd 1026]
- EC50 (EC50 given as range classes): 50 to 100 µM

SMILES: FC(F)(F)c1ccnc(N2CC3(CCN(c4cnc5cnn(C6COC6)c5n4)CC3)C2)c1 [Cmpd 493]
- EC50 [1]: < 10 µM

SMILES: FC(F)(F)c1ccnc(N2CCC3(CCN(c4cncc(-c5nncs5)n4)CC3)C2)c1 [Compound 180, 8-[6-(1,3,4-thiadiazol-2-yl)pyrazin-2-yl]-2-[4-(trifluoromethyl)pyridin-2-yl]-2,8-diazaspiro[4.5]decane]
- EC50 (EC50 given as range classes): 10 to 50 µM

SMILES: FC(F)Cn1ncc2ncc(N3CCCC4(CC(Oc5cccc(C(F)(F)F)n5)C4)C3)nc21 (centres unmarked) [Compound 27, 6-[1-(2,2-difluoroethyl)-1H-pyrazolo[3,4-b]pyrazin-6-yl]-2-{[6-(trifluoromethyl)pyridin-2-yl]oxy}-6-azaspiro[3.5]nonane]
- EC50 [1]: 10 to 50 µM

SMILES: Cc1cc(CN2CC3(CCN(c4cnc5cnn(CC(F)F)c5n4)CC3)CC2=O)no1 [Cmpd 398]
- EC50 (EC50 given as range classes): 10 to 50 µM

SMILES: FC(F)(F)Cn1ncc2ncc(N3CCC4(CCN(c5cc(C(F)(F)F)ccn5)CC4)C3)nc21 [Compound 139, 2-[1-(2,2,2-trifluoroethyl)-1H-pyrazolo[3,4-b]pyrazin-6-yl]-8-[4-(trifluoromethyl)pyridin-2-yl]-2,8-diazaspiro[4.5]decane]
- EC50 [1]: 10 to 50 µM
